Source: patent US10336732B2, “1-heterocyclyl isochromanyl compounds and analogs for treating CNS disorders” (Sunovion Pharmaceuticals Inc., priority 2015, dated 2019)

What follows are compounds tested on mice (assay: Neuropharmacological assay (SmartCube), behavioral signature of compound-treated mice). Conditions: i.p. 15 min before behavioral test, most efficacious dose(s) of 3 doses.
Assay type: in vivo
Outline: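 Read-out is an automated video-based behavioral signature, scored as per-class probabilities (e.g., anxiolytic, antidepressant) against reference compounds. Dosing was i.p. at three doses, 15 min pre-test, in NMP, polyethylene glycol and propylene glycol. Values shown are from the most efficacious dose(s).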

| Compound | AD: ADHD (probability that behavioral signature matches class) | AG: analgesic (probability that behavioral signature matches class) | AX: anxiolytic (probability that behavioral signature matches class) | CE: cognitive enhancer (probability that behavioral signature matches class) | DP: anti-depressant (probability that behavioral signature matches class) | HA: hallucinogen (probability that behavioral signature matches class) | MS: mood stabilizer (probability that behavioral signature matches class) | PS: anti-psychotic (probability that behavioral signature matches class) | SD: sedative hypnotic (probability that behavioral signature matches class) | UN: uncharacterized CNS activity (probability that behavioral signature matches class) |
| --- | --- | --- | --- | --- | --- | --- | --- | --- | --- | --- |
| Cc1ccc2c(c1)[C@H]([C@@H]1CCCN1)OCC2 [Compound I-25, (S)-2-((R)-7-methylisochroman-1-yl)pyrrolidine] | + (LOQ ≤ + <5%) | +++ (25% ≤ +++ <50%) | ++ (5% ≤ ++ <25%) | ++ (5% ≤ ++ <25%) | ++ (5% ≤ ++ <25%) | + (LOQ ≤ + <5%) | + (LOQ ≤ + <5%) | ++ (5% ≤ ++ <25%) | + (LOQ ≤ + <5%) | ++ (5% ≤ ++ <25%) |
| Cc1cccc2c1[C@H]([C@@H]1CCCN1)OCCC2 [Compound I-102, (S)-2-((R)-9-methyl-1,3,4,5-tetrahydrobenzo[c]oxepin-1-yl)pyrrolidine] | + (LOQ ≤ + <5%) | ++ (5% ≤ ++ <25%) | +++ (25% ≤ +++ <50%) | ++ (5% ≤ ++ <25%) | ++ (5% ≤ ++ <25%) | + (LOQ ≤ + <5%) | ++ (5% ≤ ++ <25%) | ++ (5% ≤ ++ <25%) | + (LOQ ≤ + <5%) | + (LOQ ≤ + <5%) |
| c1cc2c(c3c1CCO[C@H]3[C@@H]1CCCN1)OCO2 [Compound I-52, (S)-2-((R)-7,9-dihydro-6H-[1,3]dioxolo[4,5-h]isochromen-9-yl)pyrrolidine] | + (LOQ ≤ + <5%) | ++ (5% ≤ ++ <25%) | ++++ (50% ≤ ++++) | ++ (5% ≤ ++ <25%) | ++ (5% ≤ ++ <25%) | + (LOQ ≤ + <5%) | + (LOQ ≤ + <5%) | ++ (5% ≤ ++ <25%) | + (LOQ ≤ + <5%) | +++ (25% ≤ +++ <50%) |
| Fc1ccc2c(c1)[C@H](F)CO[C@H]2[C@@H]1CCN1 [Compound I-135, (2S)-2-((1R)-4,6-difluoroisochroman-1-yl)azetidine] | + (LOQ ≤ + <5%) | ++ (5% ≤ ++ <25%) | ++ (5% ≤ ++ <25%) | ++ (5% ≤ ++ <25%) | ++ (5% ≤ ++ <25%) | + (LOQ ≤ + <5%) | ++ (5% ≤ ++ <25%) | +++ (25% ≤ +++ <50%) | ++ (5% ≤ ++ <25%) | ++ (5% ≤ ++ <25%) |
| c1ccc2c(c1)CCCO[C@@H]2[C@@H]1CCCN1 [Compound I-97, (S)-2-((S)-1,3,4,5-tetrahydrobenzo[c]oxepin-1-yl)pyrrolidine] | + (LOQ ≤ + <5%) | +++ (25% ≤ +++ <50%) | ++ (5% ≤ ++ <25%) | ++ (5% ≤ ++ <25%) | ++ (5% ≤ ++ <25%) | + (LOQ ≤ + <5%) | ++ (5% ≤ ++ <25%) | +++ (25% ≤ +++ <50%) | ++ (5% ≤ ++ <25%) | + (LOQ ≤ + <5%) |
| FC1(F)CO[C@@H]([C@@H]2CCCN2)c2ccccc21 [Compound I-140, (S)-2-((R)-4,4-difluoroisochroman-1-yl)pyrrolidine] | + (LOQ ≤ + <5%) | ++ (5% ≤ ++ <25%) | ++ (5% ≤ ++ <25%) | +++ (25% ≤ +++ <50%) | ++ (5% ≤ ++ <25%) | + (LOQ ≤ + <5%) | ++ (5% ≤ ++ <25%) | ++ (5% ≤ ++ <25%) | +++ (25% ≤ +++ <50%) | ++ (5% ≤ ++ <25%) |
| Clc1ccc2c(c1)[C@@H]([C@@H]1CCCN1)OCC2 [Compound I-30, (S)-2-((S)-7-chloroisochroman-1-yl)pyrrolidine] | + (LOQ ≤ + <5%) | ++ (5% ≤ ++ <25%) | +++ (25% ≤ +++ <50%) | ++ (5% ≤ ++ <25%) | ++ (5% ≤ ++ <25%) | + (LOQ ≤ + <5%) | + (LOQ ≤ + <5%) | +++ (25% ≤ +++ <50%) | ++ (5% ≤ ++ <25%) | + (LOQ ≤ + <5%) |
| c1ccc(-c2ccc3c(c2)CCO[C@@H]3[C@@H]2CCCN2)nc1 [Compound I-57, 2-((S)-1-((S)-pyrrolidin-2-yl)isochroman-6-yl)pyridine] | + (LOQ ≤ + <5%) | + (LOQ ≤ + <5%) | + (LOQ ≤ + <5%) | + (LOQ ≤ + <5%) | + (LOQ ≤ + <5%) | + (LOQ ≤ + <5%) | + (LOQ ≤ + <5%) | + (LOQ ≤ + <5%) | + (LOQ ≤ + <5%) | + (LOQ ≤ + <5%) |
| Fc1ccc2c(c1)[C@H](F)CO[C@H]2[C@@H]1CCCN1 [Compound I-137, (S)-2-((1R,4S)-4,6-difluoroisochroman-1-yl)pyrrolidine] | + (LOQ ≤ + <5%) | ++ (5% ≤ ++ <25%) | ++ (5% ≤ ++ <25%) | ++ (5% ≤ ++ <25%) | ++ (5% ≤ ++ <25%) | + (LOQ ≤ + <5%) | ++ (5% ≤ ++ <25%) | ++++ (50% ≤ ++++) | ++ (5% ≤ ++ <25%) | ++ (5% ≤ ++ <25%) |
| CCN1CCC[C@H]1[C@@H]1OCCc2cc(F)ccc21 [Compound I-70, (S)-1-ethyl-2-((R)-6-fluoroisochroman-1-yl)pyrrolidine] | + (LOQ ≤ + <5%) | ++ (5% ≤ ++ <25%) | +++ (25% ≤ +++ <50%) | + (LOQ ≤ + <5%) | ++ (5% ≤ ++ <25%) | + (LOQ ≤ + <5%) | + (LOQ ≤ + <5%) | + (LOQ ≤ + <5%) | + (LOQ ≤ + <5%) | + (LOQ ≤ + <5%) |
| c1ccc2c(c1)CCO[C@@H]2[C@@H]1COCCN1 [Compound I-75, (S)-3-((S)-isochroman-1-yl)morpholine] | + (LOQ ≤ + <5%) | + (LOQ ≤ + <5%) | ++ (5% ≤ ++ <25%) | ++ (5% ≤ ++ <25%) | +++ (25% ≤ +++ <50%) | + (LOQ ≤ + <5%) | ++ (5% ≤ ++ <25%) | ++ (5% ≤ ++ <25%) | ++ (5% ≤ ++ <25%) | + (LOQ ≤ + <5%) |

Same assay, conditions: i.p. 15 min before behavioral test, most efficacious dose(s) of 3 doses

| Compound | XG: anxiogenic (probability that behavioral signature matches class) |
| --- | --- |
| Cc1ccc2c(c1)[C@H]([C@@H]1CCCN1)OCC2 [Compound I-25, (S)-2-((R)-7-methylisochroman-1-yl)pyrrolidine] | + (LOQ ≤ + <5%) |
| Cc1cccc2c1[C@H]([C@@H]1CCCN1)OCCC2 [Compound I-102, (S)-2-((R)-9-methyl-1,3,4,5-tetrahydrobenzo[c]oxepin-1-yl)pyrrolidine] | + (LOQ ≤ + <5%) |
| c1cc2c(c3c1CCO[C@H]3[C@@H]1CCCN1)OCO2 [Compound I-52, (S)-2-((R)-7,9-dihydro-6H-[1,3]dioxolo[4,5-h]isochromen-9-yl)pyrrolidine] | + (LOQ ≤ + <5%) |
| Fc1ccc2c(c1)[C@H](F)CO[C@H]2[C@@H]1CCN1 [Compound I-135, (2S)-2-((1R)-4,6-difluoroisochroman-1-yl)azetidine] | + (LOQ ≤ + <5%) |
| c1ccc2c(c1)CCCO[C@@H]2[C@@H]1CCCN1 [Compound I-97, (S)-2-((S)-1,3,4,5-tetrahydrobenzo[c]oxepin-1-yl)pyrrolidine] | + (LOQ ≤ + <5%) |
| FC1(F)CO[C@@H]([C@@H]2CCCN2)c2ccccc21 [Compound I-140, (S)-2-((R)-4,4-difluoroisochroman-1-yl)pyrrolidine] | + (LOQ ≤ + <5%) |
| Clc1ccc2c(c1)[C@@H]([C@@H]1CCCN1)OCC2 [Compound I-30, (S)-2-((S)-7-chloroisochroman-1-yl)pyrrolidine] | + (LOQ ≤ + <5%) |
| c1ccc(-c2ccc3c(c2)CCO[C@@H]3[C@@H]2CCCN2)nc1 [Compound I-57, 2-((S)-1-((S)-pyrrolidin-2-yl)isochroman-6-yl)pyridine] | + (LOQ ≤ + <5%) |
| Fc1ccc2c(c1)[C@H](F)CO[C@H]2[C@@H]1CCCN1 [Compound I-137, (S)-2-((1R,4S)-4,6-difluoroisochroman-1-yl)pyrrolidine] | + (LOQ ≤ + <5%) |
| CCN1CCC[C@H]1[C@@H]1OCCc2cc(F)ccc21 [Compound I-70, (S)-1-ethyl-2-((R)-6-fluoroisochroman-1-yl)pyrrolidine] | + (LOQ ≤ + <5%) |
| c1ccc2c(c1)CCO[C@@H]2[C@@H]1COCCN1 [Compound I-75, (S)-3-((S)-isochroman-1-yl)morpholine] | + (LOQ ≤ + <5%) |
